Reference: ChEMBL document CHEMBL1275550, “In vitro activity of doripenem, a carbapenem for the treatment of challenging infections caused by gram-negative bacteria, against recent clinical isolates from the United States” (2008)
≈ marks a conversion by molar mass, not a printed value.

Tests used:
Pseudomonas aeruginosa [1] = test: Antimicrobial activity against Pseudomonas aeruginosa assessed as susceptible isolate by broth microdilution method; type: functional
Pseudomonas aeruginosa [2] = test: Antimicrobial activity against Pseudomonas aeruginosa isolated from patient by broth microdilution method
Staphylococcus aureus = test: Antimicrobial activity against methicillin-susceptible Staphylococcus aureus by broth microdilution method; type: functional; conditions: Staphylococcus aureus
Enterobacter cloacae [3] = test: Antimicrobial activity against Enterobacter cloacae with nonderepressed AmpC beta-lactamsae by broth microdilution method; type: functional
Pseudomonas aeruginosa [4] = test: Antimicrobial activity against Ceftazidime susceptible Pseudomonas aeruginosa assessed as intermediate isolate by broth microdilution method; type: functional
Pseudomonas aeruginosa [5] = test: Antimicrobial activity against imipenem susceptible Pseudomonas aeruginosa by broth microdilution method; type: functional
Klebsiella pneumoniae [6] = test: Antimicrobial activity against Klebsiella pneumoniae assessed as susceptible isolate by broth microdilution method; type: functional
Acinetobacter [7] = test: Antimicrobial activity against imipenem susceptible Acinetobacter by broth microdilution method; type: functional
Enterobacter cloacae [8] = test: Antimicrobial activity against Enterobacter cloacae assessed as susceptible isolate by broth microdilution method; type: functional
Citrobacter [9] = test: Antimicrobial activity against Citrobacter with nonderepressed AmpC beta-lactamsae assessed as intermediate isolate by broth microdilution method; type: functional
Acinetobacter [10] = test: Antimicrobial activity against imipenem susceptible Acinetobacter assessed as intermediate isolate by broth microdilution method; type: functional
Proteus mirabilis [11] = test: Antimicrobial activity against Non-ESBL Proteus mirabilis assessed as intermediate isolate by broth microdilution method; type: functional
Serratia marcescens [12] = test: Antimicrobial activity against Serratia marcescens by broth microdilution method; type: functional
Pseudomonas aeruginosa [13] = test: Antimicrobial activity against Pseudomonas aeruginosa isolated from ICU patient assessed as intermediate isolate by broth microdilution method
Escherichia coli [14] = test: Antimicrobial activity against Non-ESBL Escherichia coli assessed as susceptible isolate by broth microdilution method; type: functional
Klebsiella pneumoniae [15] = test: Antimicrobial activity against Non-ESBL Klebsiella pneumoniae assessed as intermediate isolate by broth microdilution method; type: functional
Citrobacter [16] = test: Antimicrobial activity against Citrobacter with nonderepressed AmpC beta-lactamsae by broth microdilution method; type: functional
Pseudomonas aeruginosa [17] = test: Antimicrobial activity against Ceftazidime susceptible Pseudomonas aeruginosa assessed as resistant isolate by broth microdilution method; type: functional
Enterobacteriaceae [18] = test: Antimicrobial activity against Enterobacteriaceae by broth microdilution method; type: functional
Enterobacteriaceae [19] = test: Antimicrobial activity against Ceftazidime non-susceptible Enterobacteriaceae assessed as susceptible isolate by broth microdilution method; type: functional
Enterobacter cloacae [20] = test: Antimicrobial activity against Enterobacter cloacae with derepressed AmpC beta-lactamsae by broth microdilution method; type: functional
Enterobacter cloacae [21] = test: Antimicrobial activity against Enterobacter cloacae with derepressed AmpC beta-lactamsae assessed as susceptible isolate by broth microdilution method; type: functional
Serratia marcescens [22] = test: Antimicrobial activity against Ceftazidime susceptible Serratia marcescens by broth microdilution method; type: functional
Citrobacter [23] = test: Antimicrobial activity against Citrobacter with derepressed AmpC beta-lactamsae by broth microdilution method; type: functional
Proteus mirabilis [24] = test: Antimicrobial activity against ESBL producing Proteus mirabilis by broth microdilution method; type: functional
Pseudomonas aeruginosa [25] = test: Antimicrobial activity against Pseudomonas aeruginosa isolated from ICU patient by broth microdilution method; type: functional
Staphylococcus = test: Antimicrobial activity against methicillin-susceptible coagulase-negative Staphylococcus by broth microdilution method; type: functional; conditions: Staphylococcus
Acinetobacter [26] = test: Antimicrobial activity against imipenem non-susceptible Acinetobacter assessed as resistant isolate by broth microdilution method; type: functional
Escherichia coli [27] = test: Antimicrobial activity against Non-ESBL Escherichia coli assessed as intermediate isolate by broth microdilution method; type: functional
Enterobacter cloacae [28] = test: Antimicrobial activity against Enterobacter cloacae with nonderepressed AmpC beta-lactamsae assessed as intermediate isolate by broth microdilution method; type: functional
Pseudomonas aeruginosa [29] = test: Antimicrobial activity against Ceftazidime non-susceptible Pseudomonas aeruginosa assessed as resistant isolate by broth microdilution method; type: functional
Enterobacteriaceae [30] = test: Antimicrobial activity against ceftazidime-susceptible Enterobacteriaceae assessed as resistant isolate by broth microdilution method; type: functional
Serratia marcescens [31] = test: Antimicrobial activity against Ceftazidime non-susceptible Serratia marcescens by broth microdilution method; type: functional
Serratia marcescens [32] = test: Antimicrobial activity against Serratia marcescens assessed as susceptible isolate by broth microdilution method; type: functional
Enterobacteriaceae [33] = test: Antimicrobial activity against Ceftazidime non-susceptible Enterobacteriaceae assessed as intermediate isolate by broth microdilution method; type: functional
Pseudomonas aeruginosa [34] = test: Antimicrobial activity against imipenem non-susceptible Pseudomonas aeruginosa assessed as susceptible isolate by broth microdilution method; type: functional
Acinetobacter [35] = test: Antimicrobial activity against imipenem non-susceptible Acinetobacter by broth microdilution method; type: functional
Proteus mirabilis [36] = test: Antimicrobial activity against ESBL producing Proteus mirabilis assessed as intermediate isolate by broth microdilution method; type: functional
Escherichia coli [37] = test: Antimicrobial activity against ESBL producing Escherichia coli assessed as susceptible isolate by broth microdilution method; type: functional
Escherichia coli [38] = test: Antimicrobial activity against ESBL producing Escherichia coli by broth microdilution method; type: functional
Streptococcus pneumoniae = test: Antimicrobial activity against penicillin-susceptible Streptococcus pneumoniae by broth microdilution method; type: functional; conditions: Streptococcus pneumoniae
Escherichia coli [39] = test: Antimicrobial activity against Non-ESBL Escherichia coli by broth microdilution method; type: functional
Escherichia coli [40] = test: Antimicrobial activity against Escherichia coli by broth microdilution method; type: functional
Klebsiella pneumoniae [41] = test: Antimicrobial activity against Non-ESBL Klebsiella pneumoniae by broth microdilution method; type: functional
Enterobacteriaceae [42] = test: Antimicrobial activity against ceftazidime-susceptible Enterobacteriaceae assessed as susceptible isolate by broth microdilution method; type: functional
Proteus mirabilis [43] = test: Antimicrobial activity against Proteus mirabilis assessed as susceptible isolate by broth microdilution method; type: functional
Escherichia coli [44] = test: Antimicrobial activity against ESBL producing Escherichia coli assessed as intermediate isolate by broth microdilution method; type: functional
Serratia marcescens [45] = test: Antimicrobial activity against Ceftazidime susceptible Serratia marcescens assessed as intermediate isolate by broth microdilution method; type: functional
Pseudomonas aeruginosa [46] = test: Antimicrobial activity against imipenem non-susceptible Pseudomonas aeruginosa assessed as intermediate isolate by broth microdilution method; type: functional
Acinetobacter [47] = test: Antimicrobial activity against imipenem non-susceptible Acinetobacter assessed as susceptible isolate by broth microdilution method; type: functional
Acinetobacter [48] = test: Antimicrobial activity against Acinetobacter assessed as susceptible isolate by broth microdilution method; type: functional
Proteus mirabilis [49] = test: Antimicrobial activity against Non-ESBL Proteus mirabilis by broth microdilution method; type: functional

## C[C@@H](O)[C@H]1C(=O)N2C(C(=O)O)=C(SCCNC=N)C[C@H]12 [IMIPENEM ANHYDROUS]
Pseudomonas aeruginosa [1]
  Activity: 76.3%
Pseudomonas aeruginosa [2]
  Activity: 7.9%
Staphylococcus aureus; read-out: MIC50
  MIC50: 0.03 µg/mL (≈ 0.1 µM)
Staphylococcus aureus; read-out: MIC90
  MIC90: 0.03 µg/mL (≈ 0.1 µM)
Enterobacter cloacae [3]
  MIC50: 1 µg/mL (≈ 3.34 µM)
  MIC90: 2 µg/mL (≈ 6.68 µM)
Pseudomonas aeruginosa [4]
  Activity: 7.6%
Pseudomonas aeruginosa [5]
  MIC50: 2 µg/mL (≈ 6.68 µM)
  MIC90: 4 µg/mL (≈ 13.4 µM)
Klebsiella pneumoniae [6]
  Activity: 99.7%
Acinetobacter [7]
  MIC50: 0.5 µg/mL (≈ 1.67 µM)
  MIC90: 4 µg/mL (≈ 13.4 µM)
Enterobacter cloacae [8]
  Activity: 99.6%
Citrobacter [9]
  Activity: 0%
Acinetobacter [10]
  Activity: 0%
Proteus mirabilis [11]
  Activity: 2.5%
Serratia marcescens [12]
  MIC50: 2 µg/mL (≈ 6.68 µM)
  MIC90: 4 µg/mL (≈ 13.4 µM)
Pseudomonas aeruginosa [13]
  Activity: 5.8%
Escherichia coli [14]
  Activity: 100%
Klebsiella pneumoniae [15]
  Activity: 0.1%
Citrobacter [16]
  MIC50: 0.5 µg/mL (≈ 1.67 µM)
  MIC90: 2 µg/mL (≈ 6.68 µM)
Pseudomonas aeruginosa [17]
  Activity: 13.1%
Enterobacteriaceae [18]
  MIC50: 0.5 µg/mL (≈ 1.67 µM)
  MIC90: 2 µg/mL (≈ 6.68 µM)
Enterobacteriaceae [19]
  Activity: 97.3%
Enterobacter cloacae [20]
  MIC50: 1 µg/mL (≈ 3.34 µM)
  MIC90: 2 µg/mL (≈ 6.68 µM)
Enterobacter cloacae [21]
  Activity: 100%
Serratia marcescens [22]
  MIC50: 2 µg/mL (≈ 6.68 µM)
  MIC90: 4 µg/mL (≈ 13.4 µM)
Citrobacter [23]
  MIC50: 1 µg/mL (≈ 3.34 µM)
  MIC90: 2 µg/mL (≈ 6.68 µM)
Proteus mirabilis [24]
  MIC: 0.5 µg/mL (≈ 1.67 µM)
Pseudomonas aeruginosa [25]
  MIC50: 4 µg/mL (≈ 13.4 µM)
  MIC90: 32 µg/mL (≈ 107 µM)
Staphylococcus; read-out: MIC50
  MIC50: ≤ 0.015 µg/mL
Staphylococcus; read-out: MIC90
  MIC90: 0.03 µg/mL (≈ 0.1 µM)
Acinetobacter [26]
  Activity: 96.1%
Escherichia coli [27]
  Activity: 0%
Enterobacter cloacae [28]
  Activity: 0.5%
Pseudomonas aeruginosa [29]
  Activity: 36.4%
Enterobacteriaceae [30]
  Activity: 0.1%
Serratia marcescens [31]
  MIC50: 2 µg/mL (≈ 6.68 µM)
  MIC90: 4 µg/mL (≈ 13.4 µM)
Serratia marcescens [32]
  Activity: 98.9%
Enterobacteriaceae [33]
  Activity: 1.7%
Pseudomonas aeruginosa [34]
  Activity: 0%
Acinetobacter [35]
  MIC50: > 32 µg/mL
  MIC90: > 32 µg/mL
Proteus mirabilis [36]
  Activity: 0%
Escherichia coli [37]
  Activity: 100%
Escherichia coli [38]
  MIC50: 0.5 µg/mL (≈ 1.67 µM)
  MIC90: 1 µg/mL (≈ 3.34 µM)
Streptococcus pneumoniae
  MIC50: ≤ 0.015 µg/mL
Streptococcus pneumoniae; read-out: MIC90
  MIC90: ≤ 0.015 µg/mL
Escherichia coli [39]
  MIC50: 0.25 µg/mL (≈ 0.835 µM)
  MIC90: 0.5 µg/mL (≈ 1.67 µM)
Escherichia coli [40]
  MIC50: 0.25 µg/mL (≈ 0.835 µM)
  MIC90: 0.5 µg/mL (≈ 1.67 µM)
Klebsiella pneumoniae [41]
  MIC50: 0.5 µg/mL (≈ 1.67 µM)
  MIC90: 1 µg/mL (≈ 3.34 µM)
Enterobacteriaceae [42]
  Activity: 99.6%
Proteus mirabilis [43]
  Activity: 97.3%
Escherichia coli [44]
  Activity: 0%
Serratia marcescens [45]
  Activity: 0.3%
Pseudomonas aeruginosa [46]
  Activity: 32.4%
Acinetobacter [47]
  Activity: 0%
Acinetobacter [48]
  Activity: 82.4%
Proteus mirabilis [49]
  MIC50: 2 µg/mL (≈ 6.68 µM)
  MIC90: 4 µg/mL (≈ 13.4 µM)
